From ChEMBL document CHEMBL1139815, “Synthesis and characterization of a pegylated derivative of 3-(1,2,3,6-tetrahydro-pyridin-4yl)-1H-indole (IDT199): a high affinity SERT ligand for conjugation to quantum dots” (Bioorg Med Chem Lett, 2007)

Biological target: Sodium-dependent serotonin transporter (Homo sapiens, UniProt P31645)
Assay: Displacement of [3H]serotonin from human SERT expressed in HeLa cells
Format: cell-based

Sequence of Sodium-dependent serotonin transporter (P31645 whole entry): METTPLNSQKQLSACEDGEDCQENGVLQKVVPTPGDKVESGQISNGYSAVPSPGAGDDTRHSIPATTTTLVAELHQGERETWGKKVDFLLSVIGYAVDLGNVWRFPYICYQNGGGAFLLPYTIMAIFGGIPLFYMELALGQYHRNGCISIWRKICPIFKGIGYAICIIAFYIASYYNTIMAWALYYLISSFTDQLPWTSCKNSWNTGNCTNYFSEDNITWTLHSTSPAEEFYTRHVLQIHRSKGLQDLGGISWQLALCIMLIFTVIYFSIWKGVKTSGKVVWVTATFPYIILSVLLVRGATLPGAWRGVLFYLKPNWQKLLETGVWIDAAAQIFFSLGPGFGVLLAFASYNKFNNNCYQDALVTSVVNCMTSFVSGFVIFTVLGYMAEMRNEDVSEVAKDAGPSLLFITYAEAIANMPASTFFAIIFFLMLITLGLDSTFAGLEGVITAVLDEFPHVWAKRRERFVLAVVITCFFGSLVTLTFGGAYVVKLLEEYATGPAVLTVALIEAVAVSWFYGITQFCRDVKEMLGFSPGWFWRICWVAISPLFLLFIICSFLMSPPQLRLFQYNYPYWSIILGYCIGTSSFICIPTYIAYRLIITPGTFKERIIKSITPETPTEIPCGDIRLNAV

- IC50: 25 nM
SMILES: NCCCCCCCCCCCN1CCC(c2c[nH]c3ccccc23)CC1
